# Assay results published in ChEMBL document CHEMBL1201862, “PubChem BioAssay data set” (2004).
# Active and inactive are the calls of the source.
# What was measured:
# BJ [1] = experiment: cells; assay type: functional, cell-based; conditions: Homo sapiens
# [2] = biological target: T1, Microphthalmia-associated transcription factor (Homo sapiens, UniProt O75030); experiment: TRPM1 promoter luciferase signal decrease, dose response, MITF inhibitor project, cell-based, SK-MEL-5, cherry-picked, set 3 (AID 493073); assay type: functional
# T1 sequence (O75030 whole entry): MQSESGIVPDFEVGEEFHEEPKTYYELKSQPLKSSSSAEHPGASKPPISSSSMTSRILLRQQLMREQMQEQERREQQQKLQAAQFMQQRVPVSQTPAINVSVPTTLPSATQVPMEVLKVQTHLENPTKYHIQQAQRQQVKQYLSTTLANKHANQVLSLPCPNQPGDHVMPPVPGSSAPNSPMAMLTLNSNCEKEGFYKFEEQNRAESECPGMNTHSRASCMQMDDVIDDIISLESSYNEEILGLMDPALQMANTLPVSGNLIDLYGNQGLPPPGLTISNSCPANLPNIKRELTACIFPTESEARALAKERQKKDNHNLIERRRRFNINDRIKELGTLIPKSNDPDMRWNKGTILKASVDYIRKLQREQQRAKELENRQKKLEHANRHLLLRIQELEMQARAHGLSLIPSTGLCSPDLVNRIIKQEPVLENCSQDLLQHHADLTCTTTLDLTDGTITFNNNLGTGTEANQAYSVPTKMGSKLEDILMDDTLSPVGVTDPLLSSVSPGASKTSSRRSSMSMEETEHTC
# BJ [3] = experiment: cytotoxicity toward BJ-TERT-LT-ST fibroblasts, dose response, cell-based, RAS-independent, luminescence (AID 1935); assay type: functional; conditions: Homo sapiens;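 note: BJ fibroblasts immortalized with TERT plus LT and ST oncogenes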
# BJ [4] = experiment: cytotoxicity toward Ras-transformed BJeLR fibroblasts, dose response, cell-based, alamar blue fluorescence, cherrypicked samples (AID 2631); assay type: functional; conditions: Homo sapiens;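 note: confirmatory dose-response assay in RAS-dependent BJ fibroblasts engineered with TERT, LT and ST, with cytotoxicity read by fluorescence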
# [5] = biological target: G-protein coupled receptor 55 (Homo sapiens, UniProt Q9Y2T6); experiment: GPR55 agonists via beta-arrestin recruitment, primary screen, imaging, U2OS cells, beta-arrestin-GFP redistribution (AID 1961); assay type: functional
# BJ [6] = experiment: cytotoxicity toward BJ-TERT fibroblasts, dose response, cell-based, RAS-independent, luminescence (AID 1933); assay type: functional; conditions: Homo sapiens
# [7] = cytotoxicity toward DRD oncogenic fibroblasts, dose response, cell-based, non-viral oncogenic, luminescence (AID 1934); assay type: functional; conditions: Homo sapiens
# Prothrombin = Prothrombin (Homo sapiens, UniProt P00734); experiment: Thrombin 1536 HTS Dose Response Confirmation. [Related pubchem assays: 1046 (Thrombin 1536 HTS; hits were confirmed in this assay)]; assay type: functional
# Saccharomyces cerevisiae = experiment: NALP1 inhibitor project selectivity study, Caspase-1/ASC signal blockade IC50 in S. cerevisiae (AID 488863); assay type: functional, organism-based
# [8] = biological target: NACHT, LRR and PYD domains-containing protein 1 (Homo sapiens, UniProt Q9C000); experiment: NALP1 inhibitors in yeast, dose response, luminescent (AID 488860); assay type: functional
# [9] = biological target: FAD-linked sulfhydryl oxidase ALR (Homo sapiens, UniProt P55789); experiment: inhibitors of human ALR sulfhydryl oxidase, dose response, biochemical, H2O2 detection, luminescence, cherry-pick (AID 493248)
# [10] = biological target: DNA dC->dU-editing enzyme APOBEC-3A (Homo sapiens, UniProt P31941); experiment: APOBEC3A DNA deaminase inhibitors, dose response, biochemical (AID 504722); assay type: functional
# [11] = biological target: DNA dC->dU-editing enzyme APOBEC-3G (Homo sapiens, UniProt Q9HC16); experiment: Dose Response confirmation of small molecule APOBEC3G DNA Deaminase Inhibitors via a fluorescence-based single-stranded DNA deaminase assay. [Related pubchem assays (depositor defined):AID493012, AID493028]; assay type: functional
# [12] = biological target: Diphosphomevalonate decarboxylase (Streptococcus pneumoniae serotype 2 (strain D39 / NCTC 7466), UniProt Q9FD53); experiment: S. pneumoniae DPM-DC inhibition retest, confirmation, biochemical, cuvette format, coupled NADH fluorescence (AID 1028); assay type: functional
# [13] = biological target: T2, Alkaline phosphatase, tissue-nonspecific isozyme (Homo sapiens, UniProt P05186); experiment: human TNAP enzyme inhibitors, SAR follow-up, biochemical, luminescent, dose response (AID 1056)
# T2 sequence (P05186 whole entry): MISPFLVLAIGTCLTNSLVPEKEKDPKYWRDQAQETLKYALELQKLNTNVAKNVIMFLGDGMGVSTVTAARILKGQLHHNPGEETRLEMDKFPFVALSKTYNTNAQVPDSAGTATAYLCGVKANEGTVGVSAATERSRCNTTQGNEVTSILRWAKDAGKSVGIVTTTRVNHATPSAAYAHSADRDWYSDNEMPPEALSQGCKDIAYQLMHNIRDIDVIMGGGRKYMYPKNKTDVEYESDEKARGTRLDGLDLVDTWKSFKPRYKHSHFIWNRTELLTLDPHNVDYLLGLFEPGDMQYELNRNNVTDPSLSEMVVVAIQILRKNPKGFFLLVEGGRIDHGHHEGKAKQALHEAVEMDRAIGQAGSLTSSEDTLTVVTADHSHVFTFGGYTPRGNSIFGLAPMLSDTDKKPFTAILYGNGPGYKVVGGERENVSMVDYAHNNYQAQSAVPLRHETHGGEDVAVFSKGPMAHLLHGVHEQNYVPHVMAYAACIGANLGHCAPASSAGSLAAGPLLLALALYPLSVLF
# [14] = biological target: T3, Mannose-6-phosphate isomerase (Homo sapiens, UniProt P34949); experiment: PMI enzyme inhibitors, confirmation, biochemical, fluorescence intensity (AID 1535)
# T3 sequence (P34949 whole entry): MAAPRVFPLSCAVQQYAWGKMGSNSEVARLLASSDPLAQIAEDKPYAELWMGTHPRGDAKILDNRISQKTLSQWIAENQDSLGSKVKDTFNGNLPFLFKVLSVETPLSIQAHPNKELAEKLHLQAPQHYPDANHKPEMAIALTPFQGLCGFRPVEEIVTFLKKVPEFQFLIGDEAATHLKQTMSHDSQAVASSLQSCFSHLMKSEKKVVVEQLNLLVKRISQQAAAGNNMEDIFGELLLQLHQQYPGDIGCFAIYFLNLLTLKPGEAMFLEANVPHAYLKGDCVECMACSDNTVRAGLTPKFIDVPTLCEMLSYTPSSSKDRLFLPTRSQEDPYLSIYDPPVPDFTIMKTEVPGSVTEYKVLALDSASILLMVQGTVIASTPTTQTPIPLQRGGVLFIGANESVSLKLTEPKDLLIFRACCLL
# Phosphomannomutase 2 = Phosphomannomutase 2 (Homo sapiens, UniProt O15305); experiment: Counter screen SAR assay for PMM2 inhibitors via a fluorescence intensity assay. [Related pubchem assays (depositor defined):AID1545, AID1574]
# [15] = biological target: Phosphoethanolamine/phosphocholine phosphatase (Homo sapiens, UniProt Q8TCT1); experiment: SAR assay for compounds that inhibit PHOSPHO1. [Related pubchem assays (depositor defined):AID1545, AID1565, AID1574]
# Phosphoethanolamine/phosphocholine phosphatase, sequence (Q8TCT1 whole entry): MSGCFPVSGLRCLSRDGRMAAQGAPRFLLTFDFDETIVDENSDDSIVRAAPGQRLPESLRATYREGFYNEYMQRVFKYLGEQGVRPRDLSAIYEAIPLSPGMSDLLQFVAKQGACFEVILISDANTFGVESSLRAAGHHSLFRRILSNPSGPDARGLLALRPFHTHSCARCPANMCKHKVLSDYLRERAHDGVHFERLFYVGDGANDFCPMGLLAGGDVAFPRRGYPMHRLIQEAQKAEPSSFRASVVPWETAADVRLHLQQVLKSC
# Phosphomannomutase 2, sequence (O15305 whole entry): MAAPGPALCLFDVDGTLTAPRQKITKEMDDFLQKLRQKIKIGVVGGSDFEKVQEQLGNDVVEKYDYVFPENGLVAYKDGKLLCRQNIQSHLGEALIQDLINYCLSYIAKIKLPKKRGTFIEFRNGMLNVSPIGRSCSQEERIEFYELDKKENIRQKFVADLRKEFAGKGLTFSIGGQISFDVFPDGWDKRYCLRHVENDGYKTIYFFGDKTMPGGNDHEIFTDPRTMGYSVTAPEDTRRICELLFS
# FAD-linked sulfhydryl oxidase ALR, sequence (P55789 whole entry): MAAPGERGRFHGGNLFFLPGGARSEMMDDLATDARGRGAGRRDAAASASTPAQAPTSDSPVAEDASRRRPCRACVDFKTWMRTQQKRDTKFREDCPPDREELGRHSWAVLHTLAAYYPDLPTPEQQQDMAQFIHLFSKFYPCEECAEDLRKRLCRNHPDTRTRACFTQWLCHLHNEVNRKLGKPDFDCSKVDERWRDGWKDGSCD
# G-protein coupled receptor 55, sequence (Q9Y2T6 whole entry): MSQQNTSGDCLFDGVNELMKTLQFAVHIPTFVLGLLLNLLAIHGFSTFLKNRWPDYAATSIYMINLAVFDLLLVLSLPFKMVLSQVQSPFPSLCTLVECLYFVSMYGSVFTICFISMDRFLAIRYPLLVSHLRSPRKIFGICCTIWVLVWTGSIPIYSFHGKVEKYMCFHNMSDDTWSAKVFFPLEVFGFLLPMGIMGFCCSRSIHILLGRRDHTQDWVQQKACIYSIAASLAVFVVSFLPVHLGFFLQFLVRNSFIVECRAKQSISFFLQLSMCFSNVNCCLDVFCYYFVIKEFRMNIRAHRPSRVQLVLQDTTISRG
# Diphosphomevalonate decarboxylase, sequence (Q9FD53 whole entry): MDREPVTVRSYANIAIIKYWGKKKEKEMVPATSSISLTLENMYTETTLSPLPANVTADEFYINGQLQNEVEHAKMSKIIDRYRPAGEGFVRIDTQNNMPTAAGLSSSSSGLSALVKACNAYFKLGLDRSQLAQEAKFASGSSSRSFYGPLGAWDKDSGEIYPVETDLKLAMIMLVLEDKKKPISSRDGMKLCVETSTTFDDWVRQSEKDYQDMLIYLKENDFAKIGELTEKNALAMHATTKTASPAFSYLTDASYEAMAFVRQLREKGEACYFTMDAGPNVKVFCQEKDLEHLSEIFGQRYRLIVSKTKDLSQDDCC
# NACHT, LRR and PYD domains-containing protein 1, sequence (Q9C000 1-1212 limits assumed): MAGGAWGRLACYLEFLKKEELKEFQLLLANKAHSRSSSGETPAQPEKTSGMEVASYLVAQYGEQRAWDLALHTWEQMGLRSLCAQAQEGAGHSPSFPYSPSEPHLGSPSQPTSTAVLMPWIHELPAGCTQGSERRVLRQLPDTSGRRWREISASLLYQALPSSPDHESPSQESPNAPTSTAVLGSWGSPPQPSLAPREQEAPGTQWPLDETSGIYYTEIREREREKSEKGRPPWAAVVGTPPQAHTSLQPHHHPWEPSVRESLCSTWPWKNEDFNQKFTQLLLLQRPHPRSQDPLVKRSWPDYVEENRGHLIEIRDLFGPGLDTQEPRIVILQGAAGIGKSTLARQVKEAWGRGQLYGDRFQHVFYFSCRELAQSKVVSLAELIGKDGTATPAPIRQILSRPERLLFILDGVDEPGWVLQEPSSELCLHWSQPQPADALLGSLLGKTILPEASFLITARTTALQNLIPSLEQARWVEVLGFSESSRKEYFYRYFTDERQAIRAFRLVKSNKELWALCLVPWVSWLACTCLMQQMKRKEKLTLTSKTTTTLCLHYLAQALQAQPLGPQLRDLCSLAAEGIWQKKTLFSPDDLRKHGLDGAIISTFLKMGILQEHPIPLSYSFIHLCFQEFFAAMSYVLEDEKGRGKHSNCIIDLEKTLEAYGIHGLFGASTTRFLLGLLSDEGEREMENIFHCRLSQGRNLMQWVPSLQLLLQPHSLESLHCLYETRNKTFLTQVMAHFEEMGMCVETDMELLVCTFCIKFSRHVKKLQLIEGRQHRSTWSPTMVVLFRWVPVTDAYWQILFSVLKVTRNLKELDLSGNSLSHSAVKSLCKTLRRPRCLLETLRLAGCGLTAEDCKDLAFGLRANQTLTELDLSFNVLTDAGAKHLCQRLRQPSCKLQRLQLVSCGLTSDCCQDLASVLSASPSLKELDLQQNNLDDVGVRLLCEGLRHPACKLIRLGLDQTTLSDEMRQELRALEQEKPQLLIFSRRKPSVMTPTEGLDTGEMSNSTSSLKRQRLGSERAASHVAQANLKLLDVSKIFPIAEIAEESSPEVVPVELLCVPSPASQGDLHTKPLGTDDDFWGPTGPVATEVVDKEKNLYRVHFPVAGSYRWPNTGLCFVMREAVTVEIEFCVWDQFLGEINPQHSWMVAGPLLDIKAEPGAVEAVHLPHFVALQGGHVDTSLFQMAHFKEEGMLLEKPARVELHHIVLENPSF
# NACHT, LRR and PYD domains-containing protein 1, sequence (Q9C000 1213-1473 limits assumed): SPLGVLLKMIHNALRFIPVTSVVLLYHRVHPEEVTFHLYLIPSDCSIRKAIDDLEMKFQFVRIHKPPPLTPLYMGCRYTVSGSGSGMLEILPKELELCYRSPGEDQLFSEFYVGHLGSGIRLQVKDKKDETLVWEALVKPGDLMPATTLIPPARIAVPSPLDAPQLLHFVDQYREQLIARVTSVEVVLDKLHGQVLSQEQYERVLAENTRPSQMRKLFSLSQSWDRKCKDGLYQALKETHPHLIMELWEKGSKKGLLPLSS
# DNA dC->dU-editing enzyme APOBEC-3A, sequence (P31941 whole entry): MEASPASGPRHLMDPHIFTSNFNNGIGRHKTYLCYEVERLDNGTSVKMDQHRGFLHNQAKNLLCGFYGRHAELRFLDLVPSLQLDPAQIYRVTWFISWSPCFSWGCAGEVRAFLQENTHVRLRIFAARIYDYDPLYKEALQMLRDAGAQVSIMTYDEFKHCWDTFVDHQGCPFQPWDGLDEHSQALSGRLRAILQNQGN
# DNA dC->dU-editing enzyme APOBEC-3G, sequence (Q9HC16 whole entry): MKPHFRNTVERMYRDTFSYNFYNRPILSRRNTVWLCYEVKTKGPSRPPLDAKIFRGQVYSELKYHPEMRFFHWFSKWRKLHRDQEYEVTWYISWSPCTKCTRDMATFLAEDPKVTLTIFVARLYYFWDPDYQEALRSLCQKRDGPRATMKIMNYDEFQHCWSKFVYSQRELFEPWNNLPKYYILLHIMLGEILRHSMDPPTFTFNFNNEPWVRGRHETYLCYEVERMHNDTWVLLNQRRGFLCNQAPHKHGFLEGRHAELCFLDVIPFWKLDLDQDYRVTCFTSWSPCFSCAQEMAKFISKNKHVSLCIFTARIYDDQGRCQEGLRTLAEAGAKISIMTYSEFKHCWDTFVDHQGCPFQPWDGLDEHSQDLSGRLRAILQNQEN
smiles,measurement,setting,value
COc1ccc(C(=O)/C=C/C(=O)N(CC(=O)NC2CCCCC2)Cc2ccccc2OC)c(O)c1,EC50,BJ [1],3.7 µM (active)
same,AC50,[2],4.04 µM (active)
same,EC50,BJ [3],2.57 µM (inconclusive)
same,EC50,BJ [4],5.02 µM (inconclusive)
same,EC50,[5],> 32 µM (inactive)
same,EC50,BJ [6],2.2 µM (active)
same,EC50,[7],3.39 µM (active)
COCC(=O)n1nc(-c2ccc(Cl)cc2)nc1NCc1ccc(F)cc1,IC50,Prothrombin,1.8 µM (active)
same,IC50,Saccharomyces cerevisiae,> 100 µM (inactive)
same,IC50,[8],> 100 µM (inactive)
CCn1c(-c2ccc(Cl)cc2)n[nH]c1=S,AC50,[9],6.5 µM (active)
same,IC50,[10],> 100 µM (inactive)
same,IC50,[11],5.43 µM (active)
O=C(NCc1ccccc1)c1cccc(-n2sc3ccccc3c2=O)c1,IC50,[12],4.74 µM (active)
same,IC50,[13],> 100 µM (inactive)
same,IC50,[14],2.25 µM (active)
same,IC50,Phosphomannomutase 2,17.8 µM (active)
same,IC50,[15],2.33 µM (inactive)
